The values that follow come from patent US20250353891A1 (MEDIMMUNE LIMITED, priority 2022, published 2025).

Starred links: 1 amine or outer side, 2 acyl side, 3 side chain; linkers in the order of their positions; H or OH if unused. Non-standard residues stand in square brackets, D forms with d. Residues, ends and D or L forms follow the SMILES beside them. Groups on a side chain read outwards from the residue. *: point of attachment. C20 diacid = O=C(O)CCCCCCCCCCCCCCCCCCC(=O)*; C18 diacid = O=C(O)CCCCCCCCCCCCCCCCC(=O)*; γGlu = O=C(O)[C@H](CCC(=O)[*:2])N[*:1]; αMeF = C[C@](N)(Cc1ccccc1)C(=O)O; AEEA = NCCOCCOCC(=O)O; Aib = CC(C)(N)C(=O)O

The target of assay [1] is human GLP-1 receptor (hGLP-1R) (Homo sapiens, UniProt P43220). Description: cAMP production (HTRF) in CHO cells expressing hGLP-1R. Set-up: expressed in transfected cells. It counts as cell-based. Conditions: for EC50: Table 6, peptides modified at position 17, cAMP in CHO hGLP-1R cells, geometric mean, read-out: hGLP-1R EC50; for % Relative Potency Ratio: Table 6, % GLP-1R activity relative to GLP-1 / % GlucR activity relative to glucagon. A digest of the protocol:
(§1)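 Cells were resuspended in assay buffer at batch-optimized density, typically 1×10^5 cells/mL for hGLP-1R and 2×10^5 cells/mL for hGCGR. After 30 min incubation at room temperature with compound, cAMP was measured by two-step HTRF. EC50 values came from 4-parameter logistic fits of % Delta F.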

Assay [2] deals with human glucagon receptor (hGCGR) (Homo sapiens, UniProt P47871). In words: cAMP production (HTRF) in CHO cells expressing hGCGR. Details: expressed in transfected cells. Format: cell-based. The note with it: Table 6, peptides modified at position 17; cAMP in CHO hGCGR cells; geometric mean; read-out: hGluc-R EC50. Summed up:
as §1

human glucagon receptor (hGCGR), sequence (P47871 26-477): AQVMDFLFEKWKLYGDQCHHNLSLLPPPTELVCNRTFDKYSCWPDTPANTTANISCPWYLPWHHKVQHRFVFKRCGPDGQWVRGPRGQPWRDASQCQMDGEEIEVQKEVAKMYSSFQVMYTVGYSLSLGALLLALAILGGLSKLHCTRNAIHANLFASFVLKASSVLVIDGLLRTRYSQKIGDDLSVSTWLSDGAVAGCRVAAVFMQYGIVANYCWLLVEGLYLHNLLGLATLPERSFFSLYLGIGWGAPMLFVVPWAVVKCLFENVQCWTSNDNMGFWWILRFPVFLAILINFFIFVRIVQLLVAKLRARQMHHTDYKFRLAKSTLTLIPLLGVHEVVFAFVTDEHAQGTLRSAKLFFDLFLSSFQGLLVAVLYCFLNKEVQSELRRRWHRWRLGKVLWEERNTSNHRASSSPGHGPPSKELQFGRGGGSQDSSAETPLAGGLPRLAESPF
human GLP-1 receptor (hGLP-1R), sequence (P43220 24-463): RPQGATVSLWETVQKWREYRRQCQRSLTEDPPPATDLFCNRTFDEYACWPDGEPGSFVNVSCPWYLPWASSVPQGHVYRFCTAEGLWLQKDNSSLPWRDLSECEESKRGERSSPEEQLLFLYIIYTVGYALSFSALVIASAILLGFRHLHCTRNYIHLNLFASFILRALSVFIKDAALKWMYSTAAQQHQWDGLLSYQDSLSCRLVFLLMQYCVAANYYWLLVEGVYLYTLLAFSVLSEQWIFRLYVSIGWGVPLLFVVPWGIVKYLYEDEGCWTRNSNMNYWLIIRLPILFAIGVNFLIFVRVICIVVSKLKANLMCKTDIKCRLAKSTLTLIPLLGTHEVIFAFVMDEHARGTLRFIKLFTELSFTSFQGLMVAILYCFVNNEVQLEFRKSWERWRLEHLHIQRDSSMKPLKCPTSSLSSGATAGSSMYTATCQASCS

Take `CC(C)C[C@H](NC(=O)[C@H](Cc1c[nH]c2ccccc12)NC(=O)[C@H](CCCNC(=N)N)NC(=O)[C@@H](NC(=O)[C@H](Cc1ccccc1)NC(=O)[C@H](CC(=O)O)NC(=O)[C@H](CCC(N)=O)NC(=O)[C@H](C)NC(=O)[C@H](CCCNC(=N)N)NC(=O)[C@H](CCCCNC(=O)COCCOCCNC(=O)COCCOCCNC(=O)CC[C@H](NC(=O)CCCCCCCCCCCCCCCCCCC(=O)O)C(=O)O)NC(=O)[C@@H](NC(=O)[C@H](CC(=O)O)NC(=O)[C@H](CC(C)C)NC(=O)[C@](C)(Cc1ccccc1)NC(=O)[C@H](CCCCN)NC(=O)[C@H](CO)NC(=O)[C@@H](NC(=O)[C@H](CC(=O)O)NC(=O)[C@H](CO)NC(=O)[C@@H](NC(=O)[C@H](Cc1ccccc1)NC(=O)[C@@H](NC(=O)CNC(=O)[C@H](CCC(N)=O)NC(=O)C(C)(C)NC(=O)[C@@H](N)Cc1c[nH]cn1)[C@@H](C)O)[C@@H](C)O)C(C)C)[C@@H](C)O)C(C)C)C(=O)N[C@@H](CC(C)C)C(=O)N[C@@H](CCCNC(=N)N)C(=O)NC(C)(C)C(=O)N[C@@H](C)C(=O)O` [Peptide 498] (H-H[Aib]QGTFTSDVSK[αMeF]LDTK([AEEA-AEEA-γGlu-C20 diacid])RAQDFVRWLLR[Aib]A-OH; N-terminus assumed): in assay [1], the EC50 (in general, the concentration giving half of the maximal effect) turned out to be 0.156 nM and the “% Relative Potency Ratio” value amounted to 2.1. Further, the 50% effective concentration (EC50) in assay [2] came out at 0.17 nM.
The corresponding values for `CC(C)C[C@H](NC(=O)[C@H](Cc1c[nH]c2ccccc12)NC(=O)[C@H](CCC(N)=O)NC(=O)[C@@H](NC(=O)[C@H](Cc1ccccc1)NC(=O)[C@H](CC(=O)O)NC(=O)[C@H](CCC(N)=O)NC(=O)[C@H](C)NC(=O)[C@H](CCCNC(=N)N)NC(=O)[C@H](CCCCNC(=O)COCCOCCNC(=O)COCCOCCNC(=O)CC[C@H](NC(=O)CCCCCCCCCCCCCCCCC(=O)O)C(=O)O)NC(=O)[C@@H](NC(=O)[C@H](CC(=O)O)NC(=O)[C@H](CC(C)C)NC(=O)[C@](C)(Cc1ccccc1)NC(=O)[C@H](CCCCN)NC(=O)[C@H](CO)NC(=O)[C@@H](NC(=O)[C@H](CC(=O)O)NC(=O)[C@H](CO)NC(=O)[C@@H](NC(=O)[C@H](Cc1ccccc1)NC(=O)[C@@H](NC(=O)CNC(=O)[C@H](CCC(N)=O)NC(=O)C(C)(C)NC(=O)[C@@H](N)Cc1c[nH]cn1)[C@@H](C)O)[C@@H](C)O)C(C)C)[C@@H](C)O)C(C)C)C(=O)N[C@@H](CC(C)C)C(=O)N[C@@H](CCCNC(=N)N)C(=O)NC(C)(C)C(=O)N[C@@H](C)C(=O)O` [Peptide 499] (H-H[Aib]QGTFTSDVSK[αMeF]LDTK([AEEA-AEEA-γGlu-C18 diacid])RAQDFVQWLLR[Aib]A-OH; N-terminus assumed) are 0.0406 nM, 3.8 and 0.0788 nM.
The corresponding values for `CC(C)C[C@H](NC(=O)[C@H](Cc1c[nH]c2ccccc12)NC(=O)[C@H](CCC(N)=O)NC(=O)[C@@H](NC(=O)[C@H](Cc1ccccc1)NC(=O)[C@H](CC(=O)O)NC(=O)[C@H](CCC(N)=O)NC(=O)[C@H](C)NC(=O)[C@H](CCCNC(=N)N)NC(=O)[C@H](CCCCNC(=O)COCCOCCNC(=O)COCCOCCNC(=O)CC[C@H](NC(=O)CCCCCCCCCCCCCCCCCCC(=O)O)C(=O)O)NC(=O)[C@@H](NC(=O)[C@H](CC(=O)O)NC(=O)[C@H](CC(C)C)NC(=O)[C@](C)(Cc1ccccc1)NC(=O)[C@H](CCCCN)NC(=O)[C@H](CO)NC(=O)[C@@H](NC(=O)[C@H](CC(=O)O)NC(=O)[C@H](CO)NC(=O)[C@@H](NC(=O)[C@H](Cc1ccccc1)NC(=O)[C@@H](NC(=O)CNC(=O)[C@H](CCC(N)=O)NC(=O)C(C)(C)NC(=O)[C@@H](N)Cc1c[nH]cn1)[C@@H](C)O)[C@@H](C)O)C(C)C)[C@@H](C)O)C(C)C)C(=O)N[C@@H](CC(C)C)C(=O)N[C@@H](CCCNC(=N)N)C(=O)NC(C)(C)C(=O)N[C@@H](C)C(=O)O` [Peptide 500] (H-H[Aib]QGTFTSDVSK[αMeF]LDTK([AEEA-AEEA-γGlu-C20 diacid])RAQDFVQWLLR[Aib]A-OH; N-terminus assumed) are 0.102 nM, 2.0 and 0.101 nM.
On the same counts, the results for `CC(C)C[C@H](NC(=O)[C@H](Cc1c[nH]c2ccccc12)NC(=O)[C@H](CCC(N)=O)NC(=O)[C@@H](NC(=O)[C@H](Cc1ccccc1)NC(=O)[C@H](CC(=O)O)NC(=O)[C@H](CCCNC(=N)N)NC(=O)[C@H](C)NC(=O)[C@H](CCCNC(=N)N)NC(=O)[C@H](CCCCNC(=O)COCCOCCNC(=O)COCCOCCNC(=O)CC[C@H](NC(=O)CCCCCCCCCCCCCCCCC(=O)O)C(=O)O)NC(=O)[C@@H](NC(=O)[C@H](CC(=O)O)NC(=O)[C@H](CC(C)C)NC(=O)[C@](C)(Cc1ccccc1)NC(=O)[C@H](CCCCN)NC(=O)[C@H](CO)NC(=O)[C@@H](NC(=O)[C@H](CC(=O)O)NC(=O)[C@H](CO)NC(=O)[C@@H](NC(=O)[C@H](Cc1ccccc1)NC(=O)[C@@H](NC(=O)CNC(=O)[C@H](CCC(N)=O)NC(=O)C(C)(C)NC(=O)[C@@H](N)Cc1c[nH]cn1)[C@@H](C)O)[C@@H](C)O)C(C)C)[C@@H](C)O)C(C)C)C(=O)N[C@@H](CC(C)C)C(=O)N[C@@H](CCCNC(=N)N)C(=O)NC(C)(C)C(=O)N[C@@H](C)C(=O)O` [Peptide 501] (H-H[Aib]QGTFTSDVSK[αMeF]LDTK([AEEA-AEEA-γGlu-C18 diacid])RARDFVQWLLR[Aib]A-OH; N-terminus assumed) are 0.0265 nM, 5.6 and 0.0756 nM.
Regarding `CC(C)C[C@H](NC(=O)[C@H](Cc1c[nH]c2ccccc12)NC(=O)[C@H](CCC(N)=O)NC(=O)[C@@H](NC(=O)[C@H](Cc1ccccc1)NC(=O)[C@H](CC(=O)O)NC(=O)[C@H](CCCNC(=N)N)NC(=O)[C@H](C)NC(=O)[C@H](CCCNC(=N)N)NC(=O)[C@H](CCCCNC(=O)COCCOCCNC(=O)COCCOCCNC(=O)CC[C@H](NC(=O)CCCCCCCCCCCCCCCCCCC(=O)O)C(=O)O)NC(=O)[C@@H](NC(=O)[C@H](CC(=O)O)NC(=O)[C@H](CC(C)C)NC(=O)[C@](C)(Cc1ccccc1)NC(=O)[C@H](CCCCN)NC(=O)[C@H](CO)NC(=O)[C@@H](NC(=O)[C@H](CC(=O)O)NC(=O)[C@H](CO)NC(=O)[C@@H](NC(=O)[C@H](Cc1ccccc1)NC(=O)[C@@H](NC(=O)CNC(=O)[C@H](CCC(N)=O)NC(=O)C(C)(C)NC(=O)[C@@H](N)Cc1c[nH]cn1)[C@@H](C)O)[C@@H](C)O)C(C)C)[C@@H](C)O)C(C)C)C(=O)N[C@@H](CC(C)C)C(=O)N[C@@H](CCCNC(=N)N)C(=O)NC(C)(C)C(=O)N[C@@H](C)C(=O)O` [Peptide 502] (H-H[Aib]QGTFTSDVSK[αMeF]LDTK([AEEA-AEEA-γGlu-C20 diacid])RARDFVQWLLR[Aib]A-OH; N-terminus assumed), in assay [1], the concentration for a half-maximal effect (EC50) is 0.0821 nM and the “% Relative Potency Ratio” value worked out at 4.2. In addition, in assay [2], the EC50 is 0.175 nM.
On the same counts, the results for `CC(C)C[C@H](NC(=O)[C@H](Cc1c[nH]c2ccccc12)NC(=O)[C@H](CCCNC(=N)N)NC(=O)[C@@H](NC(=O)[C@H](Cc1ccccc1)NC(=O)[C@H](CC(=O)O)NC(=O)[C@H](CCC(N)=O)NC(=O)[C@H](C)NC(=O)[C@H](CCCNC(=N)N)NC(=O)[C@H](CCCCNC(=O)COCCOCCNC(=O)COCCOCCNC(=O)CC[C@H](NC(=O)CCCCCCCCCCCCCCCCCCC(=O)O)C(=O)O)NC(=O)[C@@H](NC(=O)[C@H](CC(=O)O)NC(=O)[C@H](CC(C)C)NC(=O)[C@](C)(Cc1ccccc1)NC(=O)[C@H](CCCCN)NC(=O)[C@H](CO)NC(=O)[C@@H](NC(=O)[C@H](CC(=O)O)NC(=O)[C@H](CO)NC(=O)[C@@H](NC(=O)[C@H](Cc1ccccc1)NC(=O)[C@@H](NC(=O)CNC(=O)[C@H](CCC(N)=O)NC(=O)C(C)(C)NC(=O)[C@@H](N)Cc1c[nH]cn1)[C@@H](C)O)[C@@H](C)O)C(C)C)[C@@H](C)O)C(C)C)C(=O)N[C@@H](CC(C)C)C(=O)N[C@@H](CCC(=O)O)C(=O)NC(C)(C)C(=O)N[C@@H](CCCCN)C(=O)O` [Peptide 503] are 0.0812 nM, 2.1 and 0.0849 nM.
On the same counts, the results for `CC(C)C[C@H](NC(=O)[C@H](Cc1c[nH]c2ccccc12)NC(=O)[C@H](CCCNC(=N)N)NC(=O)[C@@H](NC(=O)[C@H](Cc1ccccc1)NC(=O)[C@H](CC(=O)O)NC(=O)[C@H](CCC(N)=O)NC(=O)[C@H](C)NC(=O)[C@H](CCCNC(=N)N)NC(=O)[C@H](CCCCNC(=O)COCCOCCNC(=O)COCCOCCNC(=O)CC[C@H](NC(=O)CCCCCCCCCCCCCCCCCCC(=O)O)C(=O)O)NC(=O)[C@H](CO)NC(=O)[C@H](CCC(=O)O)NC(=O)[C@H](CC(C)C)NC(=O)[C@](C)(Cc1ccccc1)NC(=O)[C@H](CCCCN)NC(=O)[C@H](CO)NC(=O)[C@@H](NC(=O)[C@H](CC(=O)O)NC(=O)[C@H](CO)NC(=O)[C@@H](NC(=O)[C@H](Cc1ccccc1)NC(=O)[C@@H](NC(=O)CNC(=O)[C@H](CCC(N)=O)NC(=O)C(C)(C)NC(=O)[C@@H](N)Cc1c[nH]cn1)[C@@H](C)O)[C@@H](C)O)C(C)C)C(C)C)C(=O)N[C@@H](CC(C)C)C(=O)N[C@@H](CCC(=O)O)C(=O)NC(C)(C)C(=O)N[C@@H](CCCCN)C(=O)O` [Peptide 504] are 0.124 nM, 8.8 and 0.551 nM.
